This note sets out measurements from patent US20230053152A1, “Novel Quercetin Redox Derivative And Use Thereof As BET Inhibitor” (Benobio Co., Ltd., priority 2019, published 2023).

Some results are limits rather than exact numbers.

Experiment [1] has as its target T1, BRD2 (BD1 + BD2) (Homo sapiens, UniProt P25440).
T1 construct: 100 nM GST-BRD2 (BD1, BD2, BD1+BD2)
Nature of the experiment: AlphaScreen binding inhibition of GST-BRD2 (BD1+BD2) and tetraacetylated histone H4 peptide. Background: Alpha assays give light when donor and acceptor beads are brought close together.

The target in experiment [2] is T2, BRD3 (BD1 + BD2) (Homo sapiens, UniProt Q15059).
T2 construct: on the BRD3 (BD1, BD2, BD1+BD2) protein; GST
T2 sequence (Q15059 34-415 limits assumed): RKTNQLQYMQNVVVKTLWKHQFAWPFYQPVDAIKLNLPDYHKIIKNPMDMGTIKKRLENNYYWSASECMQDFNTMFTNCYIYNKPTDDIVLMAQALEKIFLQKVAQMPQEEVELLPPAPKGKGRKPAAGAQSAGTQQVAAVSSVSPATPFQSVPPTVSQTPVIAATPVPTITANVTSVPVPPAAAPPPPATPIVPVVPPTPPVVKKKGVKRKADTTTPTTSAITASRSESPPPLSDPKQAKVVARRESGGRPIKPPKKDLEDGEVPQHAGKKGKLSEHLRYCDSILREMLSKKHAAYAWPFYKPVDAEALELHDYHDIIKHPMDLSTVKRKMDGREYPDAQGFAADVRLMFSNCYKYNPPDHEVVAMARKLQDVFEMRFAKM
Nature of the experiment: Binding inhibition of BRD3 (BD1+BD2), same manner as Test Example 1. The note with it: AlphaScreen, acetyl-histone H4 peptide.

Experiment [3] addresses T3, BRD2 (BD1) (Homo sapiens, UniProt P25440).
T3 construct: 100 nM GST-BRD2 (BD1, BD2, BD1+BD2)
Briefly: AlphaScreen binding inhibition of GST-BRD2 (BD1) and tetraacetylated histone H4 peptide. The conditions noted are these: for IC50: AlphaScreen, acetyl-histone H4 peptide.

For experiment [4], the target named is T4, BRD4 (BD1 + BD2) (Homo sapiens, UniProt O60885).
T4 construct: on the BRD4 (BD1, BD2, BD1+BD2) protein; GST
Nature of the experiment: Binding inhibition of BRD4 (BD1+BD2), same manner as Test Example 1. The note with it: AlphaScreen, acetyl-histone H4 peptide.

The target in experiment [5] is T5, BRD3 (BD1) (Homo sapiens, UniProt Q15059).
T5 construct: on the BRD3 (BD1, BD2, BD1+BD2) protein; GST
T5 sequence (Q15059 34-140 limits assumed): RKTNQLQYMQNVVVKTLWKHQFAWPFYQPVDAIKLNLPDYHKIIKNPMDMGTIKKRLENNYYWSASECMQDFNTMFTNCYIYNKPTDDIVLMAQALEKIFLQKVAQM
Nature of the experiment: Binding inhibition of BRD3 (BD1), same manner as Test Example 1. The conditions noted are these: AlphaScreen, acetyl-histone H4 peptide.

Experiment [6] concerns the target T6, BRD2 (BD2) (Homo sapiens, UniProt P25440).
T6 construct: 100 nM GST-BRD2 (BD1, BD2, BD1+BD2)
Briefly: AlphaScreen binding inhibition of GST-BRD2 (BD2) and tetraacetylated histone H4 peptide. The note with it: acetyl-histone H4 peptide.

Experiment [7] deals with T7, BRD4 (BD1) (Homo sapiens, UniProt O60885).
T7 construct: on the BRD4 (BD1, BD2, BD1+BD2) protein; GST
Nature of the experiment: Binding inhibition of BRD4 (BD1), same manner as Test Example 1. The conditions noted are these: AlphaScreen, acetyl-histone H4 peptide.

Experiment [8] addresses T8, BRD3 (BD2) (Homo sapiens, UniProt Q15059).
T8 construct: on the BRD3 (BD1, BD2, BD1+BD2) protein; GST
Briefly: Binding inhibition of BRD3 (BD2), same manner as Test Example 1. The conditions noted are these: AlphaScreen, acetyl-histone H4 peptide.

T6 sequence (P25440 344-453 limits assumed): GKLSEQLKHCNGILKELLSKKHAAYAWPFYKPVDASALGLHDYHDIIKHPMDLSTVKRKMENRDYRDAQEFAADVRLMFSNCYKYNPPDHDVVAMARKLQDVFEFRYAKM
T3 sequence (P25440 74-180 limits assumed): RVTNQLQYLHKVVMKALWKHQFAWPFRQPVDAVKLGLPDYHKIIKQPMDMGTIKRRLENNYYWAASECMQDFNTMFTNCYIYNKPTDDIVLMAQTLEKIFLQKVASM
T1 sequence (P25440 74-453 limits assumed): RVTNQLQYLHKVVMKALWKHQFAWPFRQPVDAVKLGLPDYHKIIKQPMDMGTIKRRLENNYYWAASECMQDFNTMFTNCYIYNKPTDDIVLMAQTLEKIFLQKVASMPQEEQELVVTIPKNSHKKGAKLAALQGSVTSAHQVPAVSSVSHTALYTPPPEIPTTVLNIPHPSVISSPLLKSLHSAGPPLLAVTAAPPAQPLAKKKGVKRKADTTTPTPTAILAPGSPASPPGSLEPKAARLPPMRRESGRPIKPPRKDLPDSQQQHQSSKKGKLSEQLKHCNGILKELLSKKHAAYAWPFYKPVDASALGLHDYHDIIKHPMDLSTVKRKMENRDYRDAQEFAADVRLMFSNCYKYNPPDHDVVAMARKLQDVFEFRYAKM
T8 sequence (Q15059 306-415 limits assumed): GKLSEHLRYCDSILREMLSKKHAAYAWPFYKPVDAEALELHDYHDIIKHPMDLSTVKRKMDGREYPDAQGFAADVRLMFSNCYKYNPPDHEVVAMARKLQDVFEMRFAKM

In general, IC50 refers to the concentration that gives 50% inhibition. Consider `O=c1c(O)c(-c2ccc3[nH]cnc3c2)oc2cc(O)cc(O)c12` [BBC0109, 2-(1H-benzodiimidazol-5-yl)-3,5,7-trihydroxy-4H-chromen-4-one], for which the IC50 in experiment [1] (AlphaScreen, acetyl-histone H4 peptide) was determined as 9.7 µM; in experiment [2], 20.8 µM; in experiment [3], 8.63 µM; in experiment [4], 15.6 µM. The “IC50 value of BRD2 (BD1+BD2) as compared to the compound of Comparative Example 1” value in experiment [1] (relative to RVX-208) is reported as “about 30%”. In addition, in experiment [3] (relative to RVX-208), the “IC50 value of BRD2 (BD1) as compared to the compound of Comparative Example 1” value is “about 30%”.

Take `O=c1c(O)c(-c2ccc3ccoc3c2)oc2cc(O)cc(O)c12` [BBC0313, 2-(benzofuran-6-yl)-3,5,7-trihydroxy-chromen-4-one]: the half-maximal inhibitory concentration (IC50) in experiment [5] came to 1.9 µM; in experiment [6] it was 0.499 µM; in experiment [3], 4.63 µM.

As for `O=c1[nH]c2ccc(-c3oc4cc(O)cc(O)c4c(=O)c3O)cc2[nH]1` [BBC0110, 5-(3,5,7-trihydroxy-4-oxo-chromen-2-yl)-1,3-dihydrobenzimidazol-2-one], the IC50 in experiment [7] was 15.5 µM; in experiment [2] it was 20.1 µM; in experiment [3], 9.06 µM; in experiment [4], 38.6 µM.

As for `COc1cc(OC)c2c(=O)[nH]c(-c3cc(C)c(OCCO)c(C)c3)cc2c1` [BBC0204, reference compound], the IC50 in experiment [7] stood at 35.1 µM; in experiment [4], 97.2 µM.

With `Cc1cc(-c2oc3cc(O)cc(O)c3c(=O)c2O)cc(O)c1OC1COC1` [BBC0305, 3,5,7-trihydroxy-2-[3-hydroxy-5-methyl-4-(oxetan-3-yloxy)phenyl]chromen-4-one], the IC50 in experiment [5] was 3 µM; in experiment [3], 6.55 µM.

As for `Cc1cc(-c2oc3cc(O)cc(O)c3c(=O)c2O)cc(C)c1OC1COC1` [BBC0306, 2-[3,5-dimethyl-4-(oxetan-3-yloxy)phenyl]-3,5,7-trihydroxy-chromen-4-one], the IC50 came out at 1.34 µM in experiment [8], 1.41 µM in experiment [5] and 2.71 µM in experiment [3].

Turning to `O=c1[nH]c2ccc(-c3oc4cc(O)cc(O)c4c(=O)c3O)cc2o1` [BBC0113, 6-(3,5,7-trihydroxy-4-oxo-chromen-2-yl)-3H-1,3-benzoxazol-2-one], the IC50 in experiment [5] worked out at 17.1 µM; in experiment [6] it was 5.11 µM; in experiment [3], 12.2 µM.

For the compound `O=c1c(O)c(-c2ccc3c(c2)CCCO3)oc2cc(O)cc(O)c12` [BBC0309], the IC50 was 1.46 µM in experiment [5] and 7.03 µM in experiment [3].

Compound `O=c1c(O)c(-c2ccc(OC3COC3)cc2)oc2cc(O)cc(O)c12` [BBC0302, 3,5,7-trihydroxy-2-[4-(oxetan-3-yloxy)phenyl]chromen-4-one] returned an IC50 in experiment [3] of 2.4 µM.

`Cc1cc(-c2oc3cc(O)cc(O)c3c(=O)c2O)cc(OC2COC2)c1O` [BBC0307]: the IC50 turned out to be 9.29 µM in experiment [5], 18.5 µM in experiment [3] and 87.3 µM in experiment [4].

In turn, `COc1cc(OC)c2c(=O)[nH]c(-c3cc(C)c4c(c3)CCO4)nc2c1` [BBC0406, 5,7-dimethoxy-2-(7-methyl-2,3-dihydrobenzofuran-5-yl)-3H-quinazolin-4-one] returned an IC50 in experiment [5] of 11.1 µM.

With `O=c1c(O)c(-c2ccc(OC3COC3)c(O)c2)oc2cc(O)cc(O)c12` [BBC0301, 3,5,7-trihydroxy-2-[13-hydroxy-4-(oxetan-3-yloxy)phenyl]chromen-4-one], the values for the IC50 in experiment [2], in experiment [3] and in experiment [4] were 29.4 µM, 16.9 µM and 30.3 µM, respectively.

Regarding `O=c1c(O)c(-c2ccc3occc3c2)oc2cc(O)cc(O)c12` [BBC0310, 2-(benzofuran-5-yl)-3,5,7-trihydroxy-chromen-4-one], the IC50 in experiment [5] is 3.26 µM; in experiment [3], 10.1 µM.

As for `O=c1c(O)c(-c2ccc3[nH]ccc3c2)oc2cc(O)cc(O)c12` [BBC0114, 3,5,7-trihydroxy-2-(1H-indol-5-yl)chromen-4-one], the IC50 was 7.98 µM in experiment [5], 51.3 µM in experiment [2] and 4.14 µM in experiment [3].

Consider `O=c1c(O)c(-c2ccc3c(c2)OCC3)oc2cc(O)cc(O)c12` [BBC0312, 2-(2,3-dihydrobenzofuran-6-yl)-3,5,7-trihydroxy-chromen-4-one], for which the IC50 in experiment [5] was 2.64 µM; in experiment [3], 3.69 µM.

As for `COc1cc(OC)c2[nH]c(-c3cc(C)c(OCCO)c(C)c3)nc2c1` [BBC0206, reference compound], the IC50 in experiment [7] was greater than 50 µM; in experiment [4], greater than 20 µM.

In turn, `O=c1c(O)c(-c2ccc(O)c(O)c2)oc2cc(O)ccc12` [BBC0105, 2-(3,4-dihydroxyphenyl)-3,7-dihydroxy-chromen-4-one] displayed an IC50 in experiment [3] of 8.88 µM.

`O=c1c(O)c(-c2ccc3c(c2)CCO3)oc2cc(O)cc(O)c12` [BBC0311, 2-(2,3-dihydrobenzofuran-5-yl)-3,5,7-trihydroxy-chromen-4-one]: the IC50 in experiment [5] is 7.2 µM; in experiment [6], 3.79 µM; in experiment [3] it was 5.85 µM.

For the compound `O=c1c(O)c(-c2ccc3cc[nH]c3c2)oc2cc(O)cc(O)c12` [BBC0115, 3,5,7-trihydroxy-2-(1H-indol-6-yl)chromen-4-one], the IC50 in experiment [5] came to 7.18 µM; in experiment [2], 86 µM; in experiment [3], 5.24 µM.

As for `O=c1c(O)c(-c2ccc(O)c(OC3COC3)c2)oc2cc(O)cc(O)c12` [BBC0303, 3,5,7-trihydroxy-2-[4-hydroxy-3-(oxetan-3-yloxy)phenyl]chromen-4-one], the IC50 in experiment [5] stood at 3.18 µM; in experiment [2], 95.6 µM; in experiment [3] it was 8.35 µM.

In the case of `O=c1c(O)c(-c2ccc(O)c(O)c2)oc2cccc(O)c12` [BBC0104, 2-(3,4-dihydroxyphenyl)-3,5-dihydroxy-chromen-4-one], the IC50 in experiment [3] stood at 8.52 µM.
